From patent US7842294B2, “Proteins belonging to the Bcl-2 family and fragments thereof, and their use in cancer patients” (Survac APS, priority 2003, dated 2010)
Where “and” joins values, the source holds several entries; their conditions need not be identical. Equal values may be shown once. Read-outs that look alike come from different tables or passages of the source. Ends that are not written are not given here.

Assays:
HLA-A2 = target: T1, HLA-A2 (Homo sapiens, UniProt P04439, D140Y/D185E/D98H/E176V/E277Q/G131W/G231S/I119V/I121R/I166T/I218V/L300P/L318F/N151K/N90K/P208A/P217A/Q86G/Q94H/R138H/R169H/T345S); assay: Assembly assay for peptide binding to MHC class I molecules (stabilisation of HLA from TAP-deficient T2 cells); details: recovery of HLA-A2 measured at 50, 5, 0.5, 0.05 μM peptide
T1 construct: empty HLA molecules released upon cell lysis, from the TAP-deficient cell line T2; endogenous in cells; host or cells: T2 (TAP-deficient cell line), metabolically labelled with [35S]-methionine and lysed
Procedure: This assembly assay is carried out as described previously (2), and it is based on stabilisation of the HLA molecule after loading of peptide to the peptide transporter deficient cell line T2. Subsequently, correctly folded stable HLA heavy chains are immunoprecipitated using conformation dependent antibodies and the peptide binding is quantitated.
The binding affinity of the synthetic peptides (Invitrogen, Carlsbad, Calif., USA) to HLA-A2 molecules, metabolically labelled with [^35S]-methionine, was measured in the assembly assay, as described previously. The assay is based on peptide-mediated stabilisation of empty HLA molecules released upon cell lysis, from the TAP-deficient cell line T2. Stably folded HLA-molecules were immune-precipitated using the HLA class I-specific, conformation-dependent mAb W6/32, and separated by isoelectric focusing (IEF) gel electrophoresis. MHC heavy chain bands were quantified using the ImageGauge Phosphorimager program (FUJI photo film Co., Carrollton, Tex., USA). The intensity of the band is directly related to the amount of peptide-bound class I MHC complex recovered during the assay. Subsequently, the extent of stabilisation of HLA-A2 is directly related to the binding affinity of the added peptide. The recovery of HLA-A2 was measured in the presence of 50, 5, 0.5, 0.05 μM of the relevant peptide. The C50 value was calculated for each peptide as the peptide concentration sufficient for half maximal stabilisation.
The amino acid sequence of the Bcl-2 protein was screened for the most probable HLA-A2 nona- and decamer peptide epitopes, using the main HLA-A2 specific anchor residues (2). […] The assembly assay is based on stabilisation of the class I molecule after loading of different concentrations of peptide to the TAP-deficient cell line T2. Subsequently correctly folded stable MHC heavy chains are immunoprecipitated using conformation-dependent antibodies.

[1] = tested on: peptide epitope-specific interferon-γ releasing effector cells in PBL; assay: IFN-γ ELISPOT on PBL stimulated once in vitro with peptide; type: cell-based, human; details: for patients with spontaneous CTL response / patients with spontaneous CTL response (%): PBL from 15 HLA-A2 positive breast cancer patients; for pancreatic cancer patients with CTL response: two HLA-A2 positive pancreatic cancer patients; for CTL response in cancer patients of different origin (in words): PBL from HLA-matched cancer patients; for pancreatic cancer patients with response: two HLA-A3+ pancreatic cancer patients; for healthy individuals with CTL response: 12 healthy HLA-A2 positive individuals; for breast cancer patients hosting an immune response: eighteen HLA-A2+ breast cancer patients; for breast cancer patients hosting an immune response / melanoma patients hosting an immune response: responder >25 spots per 10^5 cells; for melanoma patients hosting an immune response: six HLA-A2+ melanoma patients
Procedure: To extend the sensitivity of the ELISPOT assay, PBL were stimulated once in vitro prior to analysis. At day 0, PBL or crushed lymph nodes were thawed and plated in 2 ml/well at a concentration of 2×10^6 cells in 24-well plates (Nunc, Denmark) in X-vivo medium (Bio Whittaker, Walkersville, Md.), 5% heat-inactivated human serum, and 2 mM of L-glutamine in the presence of 10 μM of peptide. Two days later 20 IU/ml recombinant interleukin-2 (IL-2) (Chiron, Ratingen, Germany) was added to the cultures. The cultured cells were tested for reactivity in the ELISPOT on day 12.
The ELISPOT assay was used to quantify peptide epitope-specific interferon-γ releasing effector cells as described previously (4). Briefly, nitrocellulose bottomed 96-well plates (MultiScreen MAIP N45, Millipore, Hedehusene, Denmark) were coated with anti-IFN-γ antibody (1-D1K, Mabtech, Nacka, Sweden). The wells were washed, blocked by X-vivo medium, and cells added in duplicates at different cell concentrations. Peptides were then added to each well and the plates were incubated overnight. The following day, media was discarded and the wells were washed prior to addition of biotinylated secondary antibody (7-B6-1-Biotin, Mabtech). The plates were incubated for 2 hours, washed and Avidin-enzyme conjugate (AP-Avidin, Calbiochem, Life Technologies) was added to each well. Plates were incubated at RT for 1 hour and the enzyme substrate NBT/BCIP (Gibco, Life Technologies) was added to each well and incubated at RT for 5-10 min. The reaction was terminated by washing with tap-water upon the emergency of dark purple spots. The spots were counted using the ImmunoSpot® Series 2.0 Analyzer (CTL Analyzers, LLC, Cleveland, US) and the peptide specific CTL frequency could be calculated from the numbers of spot-forming cells. All assays were performed in triplicates for each peptide antigen.

[2] = tested on: antigen-specific CTL in PBL; assay: Granzyme B (GrB) ELISPOT; type: cell-based, human; details: breast cancer patient no. 16 and healthy control h1
Procedure: The Granzyme B (GrB) ELISPOT assay was used for measuring antigen-specific CTL cytotoxicity as described. Briefly, nitrocellulose bottomed 96-well plates (MultiScreen MAIP N45, Millipore) were coated with GrB Capture Antibody (BD Biosciences, Brondby, Denmark). The wells were washed and blocked by X-vivo medium with 5% human serum. The cells were added at different cell concentrations. T2 cells and peptides were then added to each well and the plates were incubated 4 hours, medium was discarded and the wells were washed prior to addition of GrB Detection Antibody (BD Biosciences). The plates were incubated for 2 hours, washed and Avidin horseradish peroxidase (BD Biosciences) was added to each well. Plates were incubated at RT for 1 hour AEC Substrate Reagent (BD Biosciences) was added to each well and incubated at RT for 5-10 min. The reaction was terminated by washing with tap-water upon the emergency of red spots. The spots were counted and the peptide specific CTL frequency was calculated like for the INF-γ ELISPOT. All assays were performed in duplicate or triplicates for each peptide antigen.

[3] = C50 (concentration of the peptide required for half maximal binding to HLA-A2)
[4] = read-out: C50 (concentration of the peptide required for half maximal binding to HLA-A2)
[5] = four HLA-A1+ breast cancer patients
[6] = seven HLA-A1+ melanoma patients
[7] = six healthy HLA-A1+ individuals
[8] = six HLA-A3+ breast cancer patients, 3×10^5 cells per well, Mcl-1 study

AAAGPALSPV [bcl80]
EC50 (HLA-A2; [3]): 36000 nM

ALVGACITL [Bcl224]
EC50 (HLA-A2; [4]): 700 nM

NIALWMTEYL [bcl172]
EC50 (HLA-A2; [4]): 2000 nM
patients with spontaneous CTL response [1]: eight
patients with spontaneous CTL response (%) [1]: 50%

WLSLKTLLSL [bcl214]
EC50 (HLA-A2; [4]): 3000 nM
GrB release in controls [2]: no GrB release was detected
patients with spontaneous CTL response [1]: eleven
patients with spontaneous CTL response (%) [1]: ≈ 75%
CLL patients with Bcl-2 response ([1]; ten HLA-A2 positive CLL patients, reactivity against bcl208 and bcl214, not broken down by peptide): five
AML patients with Bcl-2 response ([1]; three AML patients, reactivity against bcl208 and bcl214, not broken down by peptide): two
pancreatic cancer patients with CTL response [1]: both

PAEEEEDDLY (Peptide derived from Mcl-1) [Mcl-1166-175]
CTL response in cancer patients of different origin (in words) [1]: CTL responses were detected
breast cancer patients with response [1, 5]: one of these
melanoma patients with response [1, 6]: another of these
healthy donors with response [1, 7]: no responses were detected

RTKRDWLVK (Peptide derived from Mcl-1) [Mcl-1300-308]
healthy donors with response ([1]; 10 healthy HLA-A3+ individuals): no responses were detected
CTL response in cancer patients of different origin (in words) [1]: strong and frequent CTL responses
breast cancer patients with response [1, 8]: three
pancreatic cancer patients with response ([1]; Mcl-1 study): one of these

QSLEIISRY (Peptide derived from Mcl-1) [Mcl-1177-185]
CTL response in cancer patients of different origin (in words) [1]: CTL responses were detected
breast cancer patients with response [1, 5]: three out of four
melanoma patients with response [1, 6]: one out of seven
healthy donors with response [1, 7]: no responses were detected

RLLFFAPTR (Peptide derived from Mcl-1) [Mcl-195-103]
healthy donors with response ([1]; 10 healthy HLA-A3+ individuals): no responses were detected
CTL response in cancer patients of different origin (in words) [1]: strong and frequent CTL responses
breast cancer patients with response [1, 8]: five
B-CLL patients with response ([1]; six HLA-A3+ patients suffering from B-CLL): two
pancreatic cancer patients with response ([1]; Mcl-1 study): two out of two

LLSLALVGA [bcl220]
EC50 (HLA-A2; [4]): 1000 nM

SLKTLLSLAL [bcl216, SLKTLLSLAL]
C50 (concentration of the peptide required for half maximal binding to HLA-A2) (HLA-A2): did not bind

RLKRDWLVK (Modified Mcl-1 peptide) [Mcl-1300-308L2]
breast cancer patients with spontaneous immune response ([1]; number examined not given, data not shown): two

FTARGRFATV [bcl124]
EC50 (HLA-A2; [4]): 1000 nM

YLNRHLHTWI [bcl180]
EC50 (HLA-A2; [4]): 20000 nM and 15000 nM
patients with spontaneous CTL response [1]: four
patients with spontaneous CTL response (%) [1]: ≈ 25%

TAYQSFEQV (Peptide derived from Bcl-XL) [Bcl-XL118-126]
CTL response in cancer patients of different origin (in words) [1]: weak spontaneous CTL response

VAFFSFGGAL (Peptide derived from Bcl-XL) [Bcl-XL141-150]
healthy individuals with CTL response [1]: no responses were detected
CTL response in cancer patients of different origin (in words) [1]: strong and frequent CTL responses
breast cancer patients hosting an immune response [1]: Four out of eighteen
melanoma patients hosting an immune response [1]: not able to detect a response
pancreatic cancer patients with CTL response [1]: one of the two

WMATYLNDHL (Peptide derived from Bcl-XL) [Bcl-XL169-178]
CTL response in cancer patients of different origin (in words) [1]: weak spontaneous CTL response

RIAAWMATY (Peptide derived from Bcl-XL) [Bcl-XL165-173]
multiple myeloma patients with response ([1]; HLA-A3+ multiple myeloma patients): one out of four
CTL response in cancer patients of different origin (in words) [1]: strong and frequent CTL responses
breast cancer patients with response ([1]; five HLA-A3+ breast cancer patients, 10^5 cells per well): four out of five
melanoma patients with response ([1]; four HLA-A3+ melanoma patients): four out of four
healthy individuals with response ([1]; seven HLA-A3+ healthy individuals): not able to detect a response
pancreatic cancer patients with response ([1]; Bcl-XL study): two out of two

VLVSRIAAWM (Peptide derived from Bcl-XL) [Bcl-XL161-170]
healthy individuals with CTL response [1]: no responses were detected
CTL response in cancer patients of different origin (in words) [1]: strong and frequent CTL responses
breast cancer patients hosting an immune response [1]: six
pancreatic cancer patients with CTL response [1]: one

SLALVGACI [bcl222]
EC50 (HLA-A2; [4]): 1000 nM

ELYGPSMRPL [bcl200]
C50 (concentration of the peptide required for half maximal binding to HLA-A2) (HLA-A2): did not bind

ALSPVPPVV [Bcl85]
EC50 (HLA-A2; [4]): 1000 nM

KTLLSLALV [bcl218]
EC50 (HLA-A2; [3]): 2000 nM

RIAAWMATYL (Peptide derived from Bcl-XL) [Bcl-XL165-174]
healthy individuals with CTL response [1]: no responses were detected
CTL response in cancer patients of different origin (in words) [1]: strong and frequent CTL responses
breast cancer patients hosting an immune response [1]: four
melanoma patients hosting an immune response [1]: two
pancreatic cancer patients with CTL response [1]: one
